Experimental data: ChEMBL document CHEMBL6153057, “Novel Imidazotriazine Derivatives as IL-17 Modulators for Treating Inflammatory and Autoimmune Disorders” (ACS Med Chem Lett, 2025)
pIC50: −log10 of the molar value.

Experiment: Antiinflammatory activity in human HDF cells assessed as inhibition of IL-17A/TNF-alpha-stimulated IL-6 release preincubated for 5 hrs followed by IL-17A/TNF-alpha stimulation and measured after 18 to 20 hrs by homogenous time-resolved FRET based assay
Assay type: functional, cell-based

pIC50	SMILES
7.40	[2H]C([2H])([2H])O[C@@H]1CCN(C(=O)[C@@H]2CCC(F)(F)CO2)[C@@H](c2cnn3cc([C@@H](NC(=O)c4ccnn4C)C4CCC(F)(F)CC4)nc3n2)C1
8.40	[2H]C([2H])([2H])O[C@@H]1CCN(C(=O)[C@@H]2CCC(F)(F)CO2)[C@H](c2cnn3cc([C@@H](NC(=O)c4ccnn4C)C4CCC(F)(F)CC4)nc3n2)C1
8.50	CO[C@@H]1CCN(C(=O)[C@@H]2CCC(F)(F)CO2)[C@H](c2cnn3cc([C@@H](NC(=O)c4ccnn4C)C4CCC(F)(F)CC4)nc3n2)C1
7.40	CO[C@@H]1CCN(C(=O)[C@@H]2CCC(F)(F)CO2)[C@@H](c2cnn3cc([C@@H](NC(=O)c4ccnn4C)C4CCC(F)(F)CC4)nc3n2)C1
